According to US20150025031A1, “METABOLIC DOWNREGULATION FOR CELL SURVIVAL” (WAKE FOREST UNIVERSITY HEALTH SCIENCES, priority 2012, published 2015):
“Also recorded” adds a separate entry of the source.

Key:
[1] = tested on: Rat tibialis anterior (TA) muscle tissues; experiment: In vitro ischemic tibialis anterior muscle tissue survival (H&E, TUNEL); type: cell-based, Sprague Dawley rats; conditions: 5 mM injected, 3 days incubation
Protocol: Rat tibialis anterior (TA) muscle tissues were dissected immediately after sacrifice of Sprague Dawley rats (17 weeks old, 380-400 g, Harlan), injected with blank, 5 mM of adenosine or cladribine, and then incubated in 5 mL of complete media for 3 days.
The tissue samples were fixed in 10% neutral buffered formalin (Sigma-Aldrich), 6 μm sections were generated by a cryotome (Leica), and stained with hematoxyline and eosin (H&E) and with TUNEL staining. Microscopic analyses were performed using a light microscope (Zeiss M1) and ImagePro software.

[2] = biological target: T1, adenosine deaminase (ADA) (Homo sapiens, UniProt P00813); experiment: Cell viability with adenosine derivatives in presence or absence of ADA, normoxic conditions (Example 2); type: cell-based; conditions: for conversion by ADA / stability towards adenosine degrading enzymes: presence of ADA
T1 construct: purchased Sigma
T1 sequence (P00813 1-363): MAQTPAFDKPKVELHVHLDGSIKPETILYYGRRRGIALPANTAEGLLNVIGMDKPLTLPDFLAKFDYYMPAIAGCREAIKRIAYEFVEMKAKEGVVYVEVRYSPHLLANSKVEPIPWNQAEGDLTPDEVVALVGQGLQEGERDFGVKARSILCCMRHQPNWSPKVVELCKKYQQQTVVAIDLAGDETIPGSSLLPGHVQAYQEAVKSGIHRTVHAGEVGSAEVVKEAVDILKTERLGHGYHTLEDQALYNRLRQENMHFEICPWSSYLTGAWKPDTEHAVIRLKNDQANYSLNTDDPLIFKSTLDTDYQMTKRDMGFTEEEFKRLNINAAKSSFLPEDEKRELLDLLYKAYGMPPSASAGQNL
Protocol: Three known ADA inhibitors were examined to evaluate the efficacies of adenosine derivatives: cladribine, pentostatin, and fludarabine phosphate. They have similar structures and molecular weights compared to adenosine, but different functional groups in the structures. Metabolic rate of cells were indirectly analyzed by cell viability in the presence or absence of adenosine derivatives and ADA in various doses. Cell viability with the drugs was evaluated under normoxic conditions.
Adenosine (Sigma-Aldrich), cladribine (Sigma, 2-Chloro-2′-deoxyadenosine), pentostatin (Tocris biosciences), and fludarabine phosphate (LGM Pharma) were used throughout this study.

C2C12 mouse myoblasts [3] = tested on: C2C12 mouse myoblasts
C2C12 mouse myoblasts [4] = conditions: 5 mM, regardless of the presence of ADA
[5] = tested on: tibialis anterior (TA) muscle; experiment: Compartment syndrome (compression injury) model, tibialis anterior muscle function; type: in vivo, Sprague Dawley rats; conditions: for recovery in muscle function vs control group / percent recovery of muscle function: tetanic outcome at 100 Hz
Protocol: Compartment syndrome model: Neonatal blood pressure cuffs were placed on the hind limbs of Sprague Dawley rats. A pressure of 130-140 mmHg was held for 3 hrs to induce compartment syndrome in the tibialis anterior (TA) muscle. The experimental group received 50 mM CDA in 300 uL saline daily up to day 2 after injury whereas the control group only received an equal volume of saline (n=6 per each group). The measurement of muscle tetanic force was used to assess in vivo muscle function at before injury and day 3 & 7.
All animal studies were performed in strict compliance with Wake Forest University IACUC and NIH guidelines. Male Lewis rats (6-8 weeks old, Harlan) were anesthetized with 2-3% isofluorane prior to all procedures. A #2 sized neonatal blood pressure cuff (Trimline Medical Products Tempa-Kuff) was tightened around the hind limb proximal to the extensor digitorum longus (EDL) muscle. The time and amount of pressure used varied as indicated. Due to the extended length of anesthesia, rats were administered IP injections of saline over the course of the procedure. Rats were euthanized at 1, 2, 4, 7, 14 or 35d post injury. At least 3 separate experiments were analyzed.
Neonatal blood pressure cuffs were placed on the hind limbs of Sprague Dawley rats. A pressure of 130-140 mmHg was held for 3 hours to induce compartment syndrome in the tibialis anterior (TA) muscle. The experimental group received injection of 30 mM cladribine in 200 μL saline daily up to day 2 after injury whereas the control group only received an equal volume of saline (n=6). The measurement of muscle tetanic force was used to assess in vivo muscle function at before and right after injury, day 3, 7, 11 and 14.
Contractile function (i.e., torque-frequency relationship) of the left anterior crural muscles was measured in vivo using similar methodology as previously described for mice (Kalka et al., 2000, Proc Natl Acad Sci USA 97:3422-3427; Boutilier, 2001, J Exp Biol 204:3171-3181) After rats were anesthetized (2-2.5% isoflurane), the left hindlimb was aseptically prepared. The rat was then placed on a heated platform. The left knee was clamped and the left foot was secured to a custom-made foot plate that is attached to the shaft of an Aurora Scientific 305C-LR-FP servomotor, which in turn was controlled using a PC. Sterilized percutaneous needle electrodes were inserted through the skin for stimulation of the left common peroneal nerve. Electrical stimulus was applied using a Grass S88 stimulator with a constant current SIU (Grass Model PSIU6). Stimulation voltage and needle electrode placement were optimized first with a series of twitch contractions at 1 hz and then with 5 to 10 isometric contractions (400 ms train of 0.05-0.1 ms pulses at 100 Hz). Contractile function of the anterior crural muscles was assessed by measuring maximal isometric torque as a function of stimulation frequency (1-200 Hz). For real-time analysis of torque and length changes, voltage outputs were sampled at 4000 Hz, converted to a digital signal using an A/D board (National Instruments PCI 6221) and recorded using a PC loaded with a custom-made Labview®-based program (provided by the U.S. Army Institute of Surgical Research).

ischemic skin flap = experiment: Ischemic skin flap model; type: in vivo, nude mice; conditions: 100 mM in 2% agarose gel, vs control
Protocol: (§1) Skin flap model: The u-shaped skin flaps were created on the back of the nude mice, then silicone sheet with 100 mM CDA-containing 2% agarose gel on top of it was placed subcutaneously between muscle and skin layer (FIGS. 9A-9B). Control group received only the materials without CDA incorporated (n=3 per each group). At day 3, the flap necrosis was photographed, and H&E sections were prepared and microscopically examined.
as §1, with “The” for “Skin flap model: The”, “gel (A9045, Sigma)” for “gel”, “(FIG. 29A).” for “(FIGS. 9A-9B).”, “(n=3).” for “(n=3 per each group).”, “were” for “were prepared and”

Nc1nc(Cl)nc2c1ncn2[C@H]1C[C@H](O)[C@@H](CO)O1 [cladribine, 2-Chloro-2′-deoxyadenosine]
muscle structure (H&E) [1]: most preserved muscle structure
number of live nuclei (TUNEL) [1]: increased number of live nuclei
area of fiber ([1]; vs control and adenosine): significantly increased area of fiber
recovery of metabolic state after drug removal ([2]; drugs removed on day 5): recovered their normal metabolic state once the drugs were removed
depression of cell metabolic rate (cell viability) in presence of ADA ([2]; normoxic conditions, with or without ADA, various doses): best able to inhibit ADA and depress the cells' metabolic rate; also recorded: maintained the cells in hypometabolic steady state the longest
conversion by ADA / stability towards adenosine degrading enzymes [2]: bypassed the conversion by ADA
conversion by ADA / stability towards adenosine degrading enzymes ([2]; listed as CDA): more stable than adenosine in the presence of adenosine degrading enzymes
metabolism after drug and hypoxia removed (C2C12 mouse myoblasts [3]; 5 mM, with or without ADA): regained metabolism activity
cellular metabolism under hypoxia (C2C12 mouse myoblasts [3]; 5 mM, with or without ADA, MTS): kept in hypometabolic steady state without being affected by ADA
metabolic activity per cell vs adenosine treated cells (C2C12 mouse myoblasts [3]; hypoxia, in the presence and absence of ADA): significantly lower metabolic activity per cell
cell population under hypoxic condition (C2C12 mouse myoblasts [4]; 7 days hypoxia): maintained minimal population with significant difference when compared to control
proliferation after drug and hypoxia removed (C2C12 mouse myoblasts [4]): regained their proliferation capability
TA muscle twitch isometric torque ([5]; 30 mM in 200 μL saline daily up to day 2, 7 days after injury): significantly increased
recovery in muscle function vs control group ([5]; 30 mM in 200 μL saline daily up to day 2): significant acceleration of recovery in muscle function
recovery in muscle function vs control group ([5]; 30 mM in 200 μL saline daily up to day 2, listed as CDA): significant increase in percent recovery up to day 11
newly forming vessels (H&E, immunostaining) ([5]; 30 mM in 200 μL saline daily up to day 2, vs saline group): more newly forming vessels
anterior crural muscle twitch isometric torque ([5]; 50 mM in 300 uL saline daily up to day 2, 7 days after injury): significantly increased
percent recovery of muscle function ([5]; day 3, 50 mM in 300 uL saline daily up to day 2): ~10%
percent recovery of muscle function ([5]; day 7, 50 mM in 300 uL saline daily up to day 2): ~35%
histological examination of skin flap (H&E) (ischemic skin flap; 3 days): better preservation of general tissue architecture, thickness of the skin and epidermis height
distal flap necrosis (skin discoloration) (ischemic skin flap; subcutaneous, day 3 post-operation): clearly reduced
